# According to patent US11491126B2, “Method for reducing lung inflammation” (priority 2017, dated 2022):
# Entries after “also recorded” stand apart in the source; their conditions may differ. Read-outs that look alike come from different tables or passages of the source.
# Key:
# [1] = ten CF children, nebulised, three months; cited from earlier work
# [2] = test system: Pseudomonas spp. (P. aeruginosa) in sputum
# Excerpt: Patients were monitored for a further four weeks, bringing the total study time to 10 weeks.
# [3] = test system: Pseudomonas aeruginosa clinical strain; experiment: MIC of tobramycin for the clinical strain used for biofilms; type: cell-based; conditions: P. aeruginosa clinical strain
# [4] = test system: P. aeruginosa biofilms; experiment: Biofilms in suspended drops of cystic fibrosis mucus treated with nebulised/aerosolised agents; type: cell-based, Pseudomonas aeruginosa; conditions: treated 5 min, incubated 16 hours; tobramycin 20 mg/ml, CaEDTA particles 10 mg/ml
# [5] = remark: listed apart in the source
# Procedure: Subjects are then discharged and treatment continued twice a day for four weeks. Subjects are monitored for a further four weeks, bringing the total study time to 10 weeks. Sputum is collected by induction with nebulised 3% hypertonic saline at 8-10 L/min for ≥5 minutes. Samples is collected prior to treatment, and at 2, 6 and 10 weeks, processed according to the relevant protocol and stored at −80° C.
# Expectorated sputum is stored in RNAlater®, total RNA is extracted using a Qiagen RNEasy® or similar extraction kit, converted into cDNA, and inflammatory markers monitored using qPCR as described by Sivaneson et al. (Mol Microbiol 79, 1353-1366) and quantified relative to known housekeeping genes, such as actin and/or GAPDH.
# Expectorated sputum is frozen directly without processing and assayed for inflammatory markers as above. As a measure of structural damage, levels of matrix metalloproteinases (MMPs) and tissue inhibitors of metalloproteinases (TIMPs) are measured using gelatin zymography and immunoassays, respectively as previously described (Gaggar et al., Eur Respir J. 2011 38(3): 721-727; Garratt et al., Eur Respir J. 2015 46(2):384-94). The amount of iron in the sputum is quantified by ICP-MS as previously described (Hunter et al., MBio. 2013 4(4):1-8). The amount of iron-binding proteins is assessed using immunoassays. Oxidative stress is assessed by measuring glutathione (GSSG and GSH) using immunoassays as previously described (Kettle et al., Eur Respir J. 2014 44(1):122-9).
# [6] = remark: listed apart in the source
# Procedure: Following discharge, treatment was continued twice a day for four weeks. Subjects were monitored for a further four weeks, bringing the total study time to 10 weeks.
# At each study visit, lung function was measured by spirometry. Data was recorded as the best of three attempts, and results were expressed as % predicted.
# [7] = in vivo; cited from earlier work
# [8] = in vivo; cited from earlier work; remark: listed apart in the source
# [9] = remark: listed apart in the source
# Procedure: Subjects with CF who need treatment with dry powder tobramycin will be allocated into four cohorts and receive 112 mg dry powder twice a day for 28 days. In addition, Cohort 1 (patients >18 years) will receive ascending doses of dry powder CaEDTA (37.5 mg BID for 1 week; 75 mg BID for 2 weeks, 150 mg BID for 1 week). Cohort 2 (patients >18 years) will receive CaEDTA (37.5 mg BID for 1 week; 75 BID for 2 weeks; 75 mg QID for 1 week). Cohort 3 (patients 12-18 years) will receive CaEDTA (37.5 mg BID for 1 week; 75 mg BID for 2 weeks, 150 mg BID for 1 week. Finally, an observational cohort will receive tobramycin alone for 28 days.
# Sputum samples will be collected weekly and assessed for markers of infection and inflammation. Bacteria will be monitored by sputum colony counts. As a measure of structural damage, levels of matrix metalloproteinases (MMPs) and tissue inhibitors of metalloproteinases (TIMPs) are measured using gelatin zymography and immunoassays, respectively, as previously described (Gaggar et al., Eur Respir J. 2011 38(3): 721-727; Garratt et al., Eur Respir J. 2015 46(2):384-94). The amount of iron in the sputum is quantified by ICP-MS as previously described (Hunter et al., MBio. 2013 4(4):1-8). The amount of iron-binding proteins is assessed using immunoassays. Myeloperoxidase activity are also assayed as a measure of neutrophilic inflammation as previously described (Gaggar et al., Eur Respir J. 2011 38(3): 721-727). 3-chlorotyrosine is measured as a biomarker of the potent oxidant hypochlorous acid. Levels are measured using stable isotope dilution gas chromatography with mass spectrometry (Gaggar et al., Eur Respir J. 2011 38(3): 721-727). Protein carbonyls are measured as an indicator of reactive oxygen species (ROS) using a commercial immunoassay kit (Gaggar et al., Eur Respir J. 2011 38(3): 721-727). Oxidative stress is assessed by measuring glutathione (GSSG and GSH) using immunoassays as previously described (Kettle et al., Eur Respir J. 2014 44(1):122-9). Gene expression of inflammatory and oxidative stress markers (e.g. IL-8, IL-6, TNFa) will also be monitored by Nanostring, and proteins will be measured by ELISA. Oxidative stress can also be measured via metabolites, such as molondialdehyde (colorimetric assay) or 8-isoprostane (ELISA). Iron will be measured by elemental analysis using laser ablation-inductively coupled plasma-mass spectrometry (LA-ICP-MS).
# [10] = test system: Lung epithelial cells; conditions: versus controls
# Procedure: Lung epithelial cells are grown in tissue culture and inflammation induced by exposure to Fe(II) or excess oxygen. The cells are treated with CaEDTA (0, 1, 5, 10, 25, 50 mM) for 30 min, 1, 3, 24 and 48 hours.
# Immunoassays are used to monitor the change in inflammatory markers, such as IL-6, IL-8, TNF-α, neutrophil elastase and others. Oxidative stress and toxicity is measured by assessing reduced glutathione (GSH) levels and apoptosis based on a TUNEL assay, both using commercial assay kits such as ThermoFisher Scientific's Glutathione Fluorescent Detection Kit and BioVision Inc's TUNEL DNA Gragmentation Assay Kit.
# [11] = versus placebo
# Procedure: A single centre, randomised, double blind, crossover study of cystic fibrosis subjects is carried out. Subjects are randomised for treatment with inhaled CaEDTA or saline (placebo) for two weeks.
# Iron levels, inflammatory markers, MMP/TIMP and FEV1 are monitored as above. Myeloperoxidase activity is also assayed as a measure of neutrophilic inflammation as previously described (Gaggar et al., Eur Respir J. 2011 38(3): 721-727). 3-chlorotyrosine will be measured as a biomarker of the potent oxidant hypochlorous acid. Levels are measured using stable isotope dilution gas chromatography with mass spectrometry (Gaggar et al., Eur Respir J. 2011 38(3): 721-727). Protein carbonyls are measured as an indicator of reactive oxygen species (ROS) using a commercial immunoassay kit (Gaggar et al., Eur Respir J. 2011 38(3): 721-727).
# [12] = test system: bacterial infections; conditions: inhaled EDTA alone; cited from earlier work
# [13] = EDTA group versus placebo group
molecule,measurement,setting,value
sodium EDTA,lung function,[1],no change in lung function
"O=C([O-])CN(CCN(CC(=O)[O-])CC(=O)[O-])CC(=O)[O-].[Ca+2].[Na+].[Na+] [CaEDTA, CaNa2EDTA]",bacterial load in expectorated mucus,"[2]; CF subjects, nebulised CaEDTA versus saline",reduces the bacterial load in CF lungs faster than antibiotic treatment alone
same,EDTA concentration in sputum,"5 minutes after 75 mg nebulised CaEDTA, CF subjects",0.41 to 1.34 mM
same,EDTA concentration inside mucus plugs,"single dose of 75 mg CaEDTA, after 30 minutes",up to 1.34 mM
NC[C@H]1O[C@H](O[C@H]2[C@H](O)[C@@H](O[C@H]3O[C@H](CO)[C@@H](O)[C@H](N)[C@H]3O)[C@H](N)C[C@@H]2N)[C@H](N)C[C@@H]1O [tobramycin],MIC,[3],> 256 µg/mL
same,"biofilm viability / killing (BacLight LIVE/DEAD, confocal microscopy)",[4],little effect on viability
"O=C(O)CN(CCN(CC(=O)O)CC(=O)O)CC(=O)O [EDTA, ethylene diamine tetraacetic acid]",gene expression of inflammatory markers in sputum (qPCR),[5]; [13],mean reduction in the gene expression of inflammatory markers
same,inflammatory markers in sputum,[5]; [13],reduction in inflammatory markers
same,balance between MMPs and TIMPs,[5]; especially MMP-9 and TIMP-1,change in the balance between MMPs and TIMPs
same,reduction in colony counts of P. aeruginosa (McC agar) versus start of treatment,"[2]; after two weeks of treatment, 300 mg EDTA/day with tobramycin, placebo 4.5-fold",> 400 fold
same,mean increase in FEV1,"[6]; after 2 weeks, 300 mg EDTA/day, placebo 5% points",16 % points
same,increase in FEV1,"[6]; four weeks after the treatment had been completed (10 weeks), placebo 2% point",7 % points
same,effect on lung function,[6]; mg EDTA/kg body weight,dose-dependent effect on lung function
same,effect on FEV1,[7],no effect on FEV1
same,bronchoconstriction,[8],concentration-dependent bronchoconstriction
same,inflammatory markers in sputum,[9]; [13],reduction in inflammatory markers
same,iron levels in sputum,[9]; [13],decrease in iron levels
same,balance between MMPs and TIMPs,[9]; especially MMP-9 and TIMP-1,change in the balance between MMPs and TIMPs
same,FEV1,[9]; versus control patients,increase in FEV1
same,bacterial load in sputum,[9]; versus control patients,reduction of bacterial load in sputum
same,"biofilm viability / killing (BacLight LIVE/DEAD, confocal microscopy)",[4],some degree of killing; also recorded: kill P. aeruginosa biofilms and act synergistically with tobramycin
same,"inflammatory markers (IL-6, IL-8, TNF-α, neutrophil elastase)","[10]; CaEDTA 0-50 mM, 30 min to 48 hours",concentration dependent reduction in inflammatory markers
same,apoptosis (TUNEL assay),[10],reduced apoptosis
same,reduced glutathione (GSH) levels,[10],reduction in GSH
same,MMP/TIMP balance,[11],altered MMP/TIMP balance
same,inflammatory markers,[11],reduced levels of iron and inflammatory markers
same,iron levels,[11],reduced levels of iron
same,mean FEV1,[11],increased mean FEV1
same,mean levels of chlorotyrosine and carbonyls,[11],lower mean levels of chlorotyrosine and carbonyls
same,myeloperoxidase activity,[11],reduced myeloperoxidase activity
same,treatment of bacterial infections,[12],does not treat bacterial infections
